Measured values published in patent US6479528B1, “Methods for inhibiting or reversing tau filament formation polymerization” (Neuronautics, Inc., priority 2001, dated 2002).
Where “and” joins values, the source holds several entries; their conditions need not be identical. Equal values may be shown once. Entries after “also recorded” stand apart in the source; their conditions may differ. Read-outs that look alike come from different tables or passages of the source.

How the values were obtained:
recombinant human htau40 = target: T1, recombinant human htau40 (Homo sapiens, UniProt P10636); assay: Thioflavin S fluorescence assay of arachidonic acid-induced tau polymerization; assay type: biochemical
T1 construct: synthetic straight filaments prepared from recombinant full-length tau; made in house
Protocol: (§1) Tau Polymerization. Purified isoforms of tau were polymerized as described previously (Wilson et al., Am. J. Pathol. 150: 2181 (1997); King et al., Biochemistry 38: 14851 (1999); King et al., J. Neurochem. 74: 1749 (2000)). Briefly, 2-8 mM (final concentration) htau40 or mutant htau40^C291A, C322A was incubated at room temperature in the presence or absence of 2-[[4-(dimethylamino)phenyl]azo]-6-methoxylbenzothiazole (compound I′) with polymerization buffer (10 mM 4-[2-hydroxyethyl]-1-piperazineethanesulfonic acid, 100 mM NaCl, and 5 mM DTT) containing 4 mM thioflavin S. Polymerization was induced by the addition of arachidonic acid (75-100 mM) and continued until analyzed by fluorescence or electron microscopy assays described below. When present, compound I′ final concentration varied from 0.05-2 mM. Control reactions were normalized for DMSO vehicle, which was limited to 5% in all reactions.
(§2) Fluorescence. Tau aggregation and disassembly were monitored by following thioflavin S fluorescence as described previously (King et al., 1999). Inhibitory activity of compound I′ was quantified by fitting the resultant data to the relationship
A=A0+(Amax−A0)/[1+10^(log IC50−logX)]
where A and A0 are blank-adjusted fluorescence in the presence and absence of inhibitor (at concentration X), respectively. IC50 values were calculated using the nonlinear regression algorithm of GRAPHPAD PRISM (GraphPad Software Inc.).
Inhibition of tau Polymerization. […] 31, 2000. 2-[[4-(Dimethylamino)phenyl]azo]-6-methoxylbenzothiazole (compound I′), an uncharged (at physiological pH) member of the azo dye family that includes Congo Red, was identified as having inhibitory activity against htau40.
The effect of compound I′ on polymerization of htau40 (2 mM) was quantified using a thioflavin S (2-4 mM) fluorescence assay (King et al., 1999).

Ab fibrils = Ab fibrils (Homo sapiens, UniProt P05067); conditions: cited from earlier work
[1] = target: T2, htau40^C291A, C322A filaments (Homo sapiens, UniProt P10636, C608A/C639A); assay: Inhibitor-mediated depolymerization of preassembled synthetic tau filaments, electron microscopy time course; assay type: biochemical
T2 construct: synthetic straight filaments prepared from recombinant full-length tau; made in house
Protocol: (§3) Tau Depolymerization. Solutions of purified htau40 or htau40^C291A, C322A (8 mM) were polymerized as described above for 3.5 hours. To assay dilution-mediated depolymerization, aliquots (50 ml) of reaction product were injected into a stirred quartz cuvette containing 1 ml of polymerization buffer with 4 mM thioflavin S and fluorescence decay followed as a function of time (room temperature). When present, arachidonic acid was 50 mM and tau was held at 2 mM.
(§4) To assay inhibitor-mediated depolymerization, compound I′ was added to polymerized tau to a final concentration of 0.2 mM into two separate microcentrifuge tubes. Aliquots were removed from each sample after 10, 20, 30, 45, 60 minutes incubation and subjected to fluorescence or electron microscopy assays described below. Control (no compound I′) reactions were normalized for DMSO vehicle, which was limited to 5% in all reactions.
(§5) Transmission Electron Microscopy. Aliquots (50 ml) of polymerization and depolymerization reactions were removed, fixed with glutaraldehyde (2%), and adsorbed (1 min) onto 300 mesh formvar/carbon-coated copper grids (Electron Microscopy Sciences; Ft. Washington, Pa.). […] Four to six random images from each experimental condition were captured on film at either 13,000× or 22,000× magnification, digitized, calibrated, and imported into Optimas 6.5.1 for quantitation of filament length and number as described previously (King et al., 2000). Individual filaments defined as any object greater than 50 nm in its long axis were counted manually. […] Length distributions were quantified in 100 nm-wide bins, beginning with 50-150 nm lengths and continuing 151-250 nm, 251-350 nm, etc.
To determine whether compound I′-mediated tau depolymerization proceeded by an endwise mechanism, htau40^C291A, C322A (4 mM) was polymerized over a 3.5 hour period after which time compound I′ (200 nM) or DMSO vehicle alone was added and filament lengths were measured over a 1 hour “chase” by electron microscopy. […]

htau40^C291A, C322A = target: T3, htau40^C291A, C322A (Homo sapiens, UniProt P10636, C608A/C639A); assay: Electron microscopy assay of tau filament formation; assay type: biochemical; conditions: 200 nM compound (1:40 molar ratio relative to tau), 8 µM htau40^C291A
T3 construct: synthetic straight filaments prepared from recombinant full-length tau; made in house
Protocol: as §1, with “Control reactions were normalized for DMSO vehicle, which was limited to 5% in all reactions.” left out
as §5, with “Microscopy.” for “Microscopy. Aliquots (50 ml) of polymerization and depolymerization reactions were removed, fixed with glutaraldehyde (2%), and adsorbed (1 min) onto 300 mesh formvar/carbon-coated copper grids (Electron Microscopy Sciences; Ft. Washington, Pa.).”, “etc. […]” for “etc.”

[2] = Charge state at physiological pH; assay type: physicochemical
[3] = target: T4, synthetic tau filaments (htau40) (Homo sapiens, UniProt P10636); assay: Disassembly of preassembled synthetic tau filaments, dose response; assay type: biochemical; conditions: filaments assembled 3 hours; read-out: IC50, dose response on preassembled tau filaments (data not shown)
T4 construct: synthetic straight filaments prepared from recombinant full-length tau; made in house
Protocol: as §3
as §4, with “Control (no compound I′) reactions were normalized for DMSO vehicle, which was limited to 5% in all reactions.” left out
as §2
To determine whether compound I′ also could destabilize mature filaments and mimic the depolymerization observed in dilution experiments, tau filaments assembled in the presence of thioflavin S for 3 hours under standard conditions were incubated in the presence or absence of compound I′ (200 nM) and examined after various times by electron microscopy and fluorescence.

Aβ1-40 = target: T5, Aβ1-40 (Homo sapiens, UniProt P05067); assay: Aβ1-40 aggregation, turbidity at 350 nm; assay type: biochemical; conditions: 20 μM (20 mM in the source) compound, stoichiometric with Aβ
T5 construct: Stock solutions of Aβ1-40 (Bachem; Philadelphia, Pa.) were prepared in DMSO; purchased Bachem
Protocol: Aβ1-40 Aggregation. Stock solutions of Aβ (1 mM) were prepared in DMSO and filtered (0.2 mM cutoff). Aggregation was initiated by diluting the Aβb stock solution to 20 mM final concentration in aggregation buffer (150 mM NaCl, 10 mM 2-[N-morpholino]ethanesulfonic acid, pH 6.2; final volume 100 mL). Turbidity resulting from Aβ aggregation in the presence (20 mM final concentration) and absence of compound I′ was monitored as a function of time in a Beckman DU640B spectrophotometer at 350 nm versus a DMSO vehicle blank (Snyder et al., Biophys. J. 67: 1216 (1994); Evans et al., Proc. Natl. Acad. Sci. USA 92: 763 (1995)). Cuvettes were rapidly inverted before each reading.
Selectivity of tau Polymerization Antagonism. […] To determine whether amyloid binding was accompanied by polymerization inhibitory activity, the ability of compound I′ to inhibit spontaneous Aβ1-40 assembly was examined. In the absence of ligand, Aβ1-40 (20 mM) polymerized spontaneously after a lag of 1 hour (FIG. 6).

[4] = tested on: Tau filaments isolated from AD brain; assay: Disassembly of authentic tau filaments, electron microscopy; assay type: biochemical, human; conditions: 2 mM compound; 20 min incubation; filaments 0.03 mg/ml
Protocol: The ability of compound I′ (2 mM) to depolymerize authentic filaments (0.033 mg/ml) was assayed as above except that timepoints were limited to 0, 10, and 20 min post addition.
Transmission Electron Microscopy. Aliquots (50 ml) of polymerization and depolymerization reactions were removed, fixed with glutaraldehyde (2%), and adsorbed (1 min) onto 300 mesh formvar/carbon-coated copper grids (Electron Microscopy Sciences; Ft. Washington, Pa.). The resultant grids were washed with water, stained (1 min) with 2% uranyl acetate (Electron Microscopy Sciences), washed again with water, blotted dry, and viewed in a Phillips CM 12 microscope operated at 65 kV. Four to six random images from each experimental condition were captured on film at either 13,000× or 22,000× magnification, digitized, calibrated, and imported into Optimas 6.5.1 for quantitation of filament length and number as described previously (King et al., 2000). Individual filaments defined as any object greater than 50 nm in its long axis were counted manually. Counts from each of the 4 to 6 random images per condition are reported as an average±standard deviation for both filament length and number. Length distributions were quantified in 100 nm-wide bins, beginning with 50-150 nm lengths and continuing 151-250 nm, 251-350 nm, etc.
Authentic PHF Disassembly. […]

[5] = approximate values given in the description, read-out: IC50, arachidonic acid polymerization of full length tau protein
[6] = after 1 hour incubation with 200 nM compound

T1 sequence (P10636 1-441 isoform P10636-8): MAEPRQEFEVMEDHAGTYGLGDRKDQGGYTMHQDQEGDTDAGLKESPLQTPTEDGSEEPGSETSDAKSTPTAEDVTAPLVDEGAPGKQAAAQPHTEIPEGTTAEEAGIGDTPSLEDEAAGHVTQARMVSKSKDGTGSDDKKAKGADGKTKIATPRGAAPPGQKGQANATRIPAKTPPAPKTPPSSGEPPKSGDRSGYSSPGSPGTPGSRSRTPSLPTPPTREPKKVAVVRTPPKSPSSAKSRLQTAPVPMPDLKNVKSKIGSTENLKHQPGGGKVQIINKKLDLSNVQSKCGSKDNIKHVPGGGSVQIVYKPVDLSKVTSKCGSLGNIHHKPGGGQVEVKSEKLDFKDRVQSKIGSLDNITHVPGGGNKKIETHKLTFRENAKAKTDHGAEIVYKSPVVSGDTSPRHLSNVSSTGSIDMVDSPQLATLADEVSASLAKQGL
T2 sequence (P10636 1-441 isoform P10636-8 C291A/C322A): as the sequence (P10636 1-441 isoform P10636-8) above, with C291A, C322A counted along it
T5 sequence (P05067 672-711 limits assumed): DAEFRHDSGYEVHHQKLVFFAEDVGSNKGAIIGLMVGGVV
T3 sequence (P10636 1-441 isoform P10636-8 C291A/C322A): as the sequence (P10636 1-441 isoform P10636-8) above, with C291A, C322A counted along it
T4 sequence (P10636 1-441 isoform P10636-8): as the sequence (P10636 1-441 isoform P10636-8) above
Ab fibrils, sequence (P05067 672-713 limits assumed): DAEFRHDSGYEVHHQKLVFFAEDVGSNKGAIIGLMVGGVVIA

In the case of `CCC(=Cc1sc2ccc(OC)cc2[n+]1CCO)C=C1Sc2ccc(OC)cc2N1CCO` [3-(2-hydroxy-ethyl)-2-{2-[3-(2-hydroxyl-ethyl)-5-methoxy-3H-benzothiazol-2-ylidenemethyl]-but-1-enyl}-5-methoxy-benzothiazol-3-ium], the IC50 (recombinant human htau40; [5]) is reported as about 40 nM.

`CCN(CCO)c1ccc(N=Nc2nc3ccc(OC)cc3s2)cc1` [2-[[4-(N-ethyl-N-β-hydroxyethylamino)phenyl]azo]-6-methoxybenzothiazole] showed an IC50 (recombinant human htau40; [5]) of about 60 nM.

Molecule `Cc1cc(N=Nc2c(O)ccc3ccccc23)c(CCCC(=O)O)s1` [4-[3-(2-hydroxy-naphthalen-1-ylazo)-5-methyl-thiophen-2-yl]-butyric acid] has an IC50 (recombinant human htau40; [5]) of about 700 nM.

In the case of `CCN(CC)c1ccc(N=Nc2nc3ccc(OC)cc3s2)cc1` [2-[[4-(didethylamino)phenyl]azo]-6-methoxybenzothiazole], the IC50 (recombinant human htau40; [5]) is reported as about 60 nM.

For thioflavin S [reference compound], the “effect on tau polymerization at the concentration required for filament binding” value (recombinant human htau40; concentration about EC50 of binding) was “not sufficient to inhibit or reverse tau polymerization”.

In the case of `Nc1ccc(-c2nc3ccc(-c4nc5ccc(N)cc5[nH]4)cc3[nH]2)cc1` [Ro 90-7501], the “effect on Ab fibrils” value (Ab fibrils) is listed as “inhibit polymerization and promote disaggregation”.

Molecule `COc1ccc2nc(N=Nc3ccc(N(C)c4ccccc4)cc3)sc2c1` [[4-(6-methoxy-benzothiazol-2-ylazo)phenyl]-methylphenyl amine] has an IC50 (recombinant human htau40; [5]) of about 60 nM.

`O=C1Nc2ccccc2/C1=N/NC(=O)c1cc2ccccc2cc1O` [Compound III, 3-hydroxy-napthalene-2-carboxylic acid (2-oxo-1,2-dihydro-indol-3-ylidene)-hydrazide] showed an IC50 (recombinant human htau40; [5]) of about 600 nM.

In the case of `COc1ccc2nc(/N=N/c3ccc(N(C)C)cc3)sc2c1` [compound I′, 2-[[4-(dimethylamino)phenyl]azo]-6-methoxylbenzothiazole], the “initial first order rate of decrease of total filament length per field” value ([1]; 200 nM compound added to filaments polymerized 3.5 h) is reported as 0.042 min⁻¹, the “total filament length, % of vehicle only controls” value [1, 6] is reported as 21±6% and the “total filament number, % of vehicle only controls” value [1, 6] is reported as 84±26%. The total filament number, % of control at 0.2 µM (htau40^C291A, C322A) was 14.2 ± 0.6%, the “total filament number, % of control values” (htau40^C291A, C322A) was 10-20% and the “charge at physiological pH” value [2] was “uncharged”. The IC50 [3] was 91 ± 13 nM, the “IC50 as % of the molar concentration of arachidonic acid” value (recombinant human htau40) was under 0.1% and the IC50 (recombinant human htau40; [5]) was < 100 nM and ~60 nM. For the same molecule, the IC50 (recombinant human htau40; arachidonic acid-induced, 3.5 h, room temperature, % of DMSO vehicle control fluorescence, read-out: IC50, inhibition of htau40 polymerization (thioflavin S fluorescence)) was 54 ± 6 nM, the “effect on Aβ1-40 polymerization / assembly kinetics” value (Aβ1-40) was “did not inhibit Aβ polymerization; also recorded: does not interfere with Aβ1-40 assembly; also recorded: did not alter Aβ1-40 assembly kinetics significantly” and the “total filament length, % of DMSO vehicle control” value [4] was 14±9% and 10-50%.

`Cc1ccc(N=Nc2ccc(-c3ccc(N=Nc4ccc(C)c(C(=O)O)c4O)cc3)cc2)c(O)c1C(=O)O` [3-[4′-(3-carboxy-2-hydroxy4-methyl-cyclohexa-1,5-dienylazo)-biphenyl-4-ylazo]-2-hydroxy-6-methyl benzoic acid] showed an IC50 (recombinant human htau40; [5]) of about 400 nM.
